Like-named read-outs stand apart in the source and are kept apart here.
How the values were obtained:
complement system = conditions: Br. J. Exp. Pathol. 33: 327 (1952); cited from earlier work
[1] = system: hereditary angioneurotic edema; conditions: literature reports; cited from earlier work
activated human C1 = target: T1, activated human C1 (Homo sapiens, UniProt P09871); assay: Test Code 026 (C1 inhibitor); assay type: biochemical; conditions: serial twofold dilution assay; higher well number indicates higher activity
T1 sequence (P09871 16-437 limits assumed): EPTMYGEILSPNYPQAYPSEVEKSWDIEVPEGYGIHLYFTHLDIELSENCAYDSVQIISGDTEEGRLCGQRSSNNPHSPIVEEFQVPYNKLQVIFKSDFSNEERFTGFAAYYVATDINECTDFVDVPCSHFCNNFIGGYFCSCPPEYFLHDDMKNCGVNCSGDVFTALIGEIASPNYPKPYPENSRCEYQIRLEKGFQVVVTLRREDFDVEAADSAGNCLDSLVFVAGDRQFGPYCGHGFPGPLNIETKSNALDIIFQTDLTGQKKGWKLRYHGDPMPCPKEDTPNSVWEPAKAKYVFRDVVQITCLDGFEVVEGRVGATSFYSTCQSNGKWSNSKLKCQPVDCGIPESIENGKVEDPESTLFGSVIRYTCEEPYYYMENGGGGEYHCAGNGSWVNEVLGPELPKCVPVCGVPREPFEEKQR
T1 sequence (P09871 438-688 limits assumed): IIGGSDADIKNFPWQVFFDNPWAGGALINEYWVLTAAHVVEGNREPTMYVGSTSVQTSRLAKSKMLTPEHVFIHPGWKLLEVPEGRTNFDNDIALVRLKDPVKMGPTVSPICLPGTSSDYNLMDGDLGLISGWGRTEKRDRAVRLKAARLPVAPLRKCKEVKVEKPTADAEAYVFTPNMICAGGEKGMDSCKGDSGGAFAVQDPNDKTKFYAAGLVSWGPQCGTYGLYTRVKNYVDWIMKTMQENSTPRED

[2] = system: late components of human complement (C3-C9); assay: Test Code 035 (C3-C9 inhibitor), lysis of EAC 142; assay type: biochemical; conditions: serial twofold dilution assay; higher well number indicates higher activity
[3] = system: complement activity of sera; assay: Guinea Pig Intraperitoneal Test (GPIP); assay type: in vivo; conditions: Cavia porcellus, ip, 200 mg/kg i.p., capillary complement assay
Experimental: Percent inhibition is calculated by comparison with simultaneous controls.

human serum = conditions: in vitro and in vivo, judged by reduction in total hemolytic complement activity; cited from earlier work

Nc1ccc2cc(S(=O)(=O)[O-])cc(O)c2c1N=Nc1ccc(NC(=O)Nc2ccc(N=Nc3c(N)ccc4cc(S(=O)(=O)[O-])cc(O)c34)c(S(=O)(=O)[O-])c2)cc1S(=O)(=O)[O-].[Na+].[Na+].[Na+].[Na+] [chlorazol fast pink, 3,3'-ureylenebis-[6-(2-amino-8-hydroxy-6-sulfo-1-naphthylazo)benzenesulfonic acid], tetrasodium salt]
anticomplementary effect (complement system): anticomplementary effect

NCCCCCC(=O)O [epsilon-aminocaproic acid]
success in the treatment of hereditary angioneurotic edema [1]: used with success

O=C(CC(=O)Nc1ccc(S[C@@H]2O[C@H](COS(=O)(=O)O)[C@@H](O[C@H]3O[C@H](COS(=O)(=O)O)[C@@H](OS(=O)(=O)O)[C@H](OS(=O)(=O)O)[C@H]3OS(=O)(=O)O)[C@H](OS(=O)(=O)O)[C@H]2OS(=O)(=O)O)cc1)Nc1ccc(S[C@@H]2O[C@H](COS(=O)(=O)O)[C@@H](O[C@H]3O[C@H](COS(=O)(=O)O)[C@@H](OS(=O)(=O)O)[C@H](OS(=O)(=O)O)[C@H]3OS(=O)(=O)O)[C@H](OS(=O)(=O)O)[C@H]2OS(=O)(=O)O)cc1.[Na].[Na].[Na].[Na].[Na].[Na].[Na].[Na].[Na].[Na].[Na].[Na].[Na].[Na] [tetradecasodium N,N'-bis[4-[2,3,6-tri-O-sulfo-4-O-(2,3,4,6-tetra-O-sulfo-α-D-glucopyranosyl)-β-D-glucopyranosylthio]phenyl]propanediamide]
in vitro Activity Cl 026 Wells (activated human C1): 9.9 Wells
in vitro Activity C-Late 035 Wells [2]: 1.6 Wells
inhibition at 200 mg/kg ([3]; blood 2 hours after injection, read-out: in vivo Activity Guinea Pig % Inhibition Intraperitoneal, 2 hours): 90%
inhibition at 200 mg/kg ([3]; blood 6 hours after injection, read-out: in vivo Activity Guinea Pig % Inhibition Intraperitoneal, 6 hours): 90%
inhibition at 200 mg/kg ([3]; blood 24 hours after injection, read-out: in vivo Activity Guinea Pig % Inhibition Intraperitoneal, 24 hours): 47%

NC[C@H]1CC[C@H](C(=O)O)CC1 [tranexamic acid]
success in the treatment of hereditary angioneurotic edema [1]: used with success

heparin
anticomplementary effect (complement system): anticomplementary effect

pentosan-polysulfoester
anticomplementary activity on human serum (human serum): anticomplementary activity

From US4399126A, “Modulators of the complement system” (American Cyanamid Company, priority 1982, dated 1983)
